Where a SMILES comes first, the peptide text is derived from it. Where no end group is shown, it is not given here.
Legend:
[1] = system: human normal colon epithelial cells (NCM-460); assay type: cell-based; conditions: 48 h
Description: Human normal colon epithelial cells (NCM‐460) were purchased from the BeNa Culture Collection. Cytotoxicity was measured using the 3‐[4,5‐dimethylthiazol‐2‐yl]−2,5 diphenyl tetrazolium bromide (MTT) assay. The NCM‐460 cells were cultured in the Dulbecco's modified Eagle's medium (DMEM)‐H complete culture medium (90% DMEM‐H, 10% FBS, 10,000 U/mL penicillin, and 10,000 μg/mL streptomycin) to logarithmic growth phase. The suspension of cells was prepared at 10^5 cells/100 μL/well in a 96‐well plate. The peptides selected for the assay were dissolved in the DMEM‐H medium to prepare a 25 mg/mL stock solution, diluted for multiple gradients of 4–512 μg/mL. Afterwards, the peptides that had been diluted (100 μL/well) were introduced into the cells residing on a 96‐well plate. The DMEM‐H medium served as the blank group, the cell suspension as the control group, and the cell suspension combined with the peptide as the experimental group. Each group was conducted in three separate replicates. After 48 h of culture, 10 μL MTT was added to each well and incubated further at 37°C for 4 h. Then 100 μL Formazan solution was added and incubated further at 37°C for 4 h until all the purple crystals were dissolved. The absorbances were measured at OD570. Cell viability was determined by calculating cell viability using the following formula. Cell viability=OD570(experimental)−OD570(blank)/OD570(control)−OD570(blank)×100%.
Then, the CC50 value of each AMP molecule was calculated using an online tool: https://www.aatbio.com/tools/ic50-calculator.

sheep red blood cells = conditions: red cells of sheep, 1 h
Description: Freshly collected sheep blood was centrifuged at 3000 rpm for 10 min, and the supernatant was removed. The pellet was washed and resuspended with normal saline water to produce a 2% blood cell solution. Then, 400 μL of peptide solution was added to 100 μL of 2% blood cell solution to achieve final peptide concentrations of 8, 16, 32, 64, and 128 μg/mL. Normal saline water and Triton X‐100 normal saline solution (2%) were used as negative and positive controls, respectively. The samples were incubated in a water bath at 37°C for 1 h, followed by centrifugation at 3000 rpm for 10 min. Then, 200 μL of the supernatant was transferred to a 96‐well plate, and OD values were measured at a wavelength of 545 nm. The hemolysis rate of each sample was calculated using the following formula: Hemolysis ratio=OD545(experimental)−OD545(negative control)/OD545(positive control)−OD545(negative control)×100%.

[2] = system: eight pathogenic bacterial strains; assay: MIC, panel statement; assay type: cell-based; conditions: panel of eight strains, CAMHB, 37°C
Description: Eight bacterial strains were utilized in the antibacterial experiment. S. aureus ATCC 12600, B. subtilis ATCC 23857, E. coli ATCC 11775, and A. baumannii ATCC 19606 were purchased from Shanghai Beinuo Biology. M. luteus ATCC 4698 and S. bongori ATCC43975 were purchased from Shanghai Beisi Biotechnology. V. owensii ems001 and V. alginolyticus xv22 from the intestines of diseased shrimps were isolated in our laboratory. All strains were cultured in the cation‐adjusted Mueller‐Hinton broth (CAMHB) at 37°C to the logarithmic growth phase (OD600 = 0.5). Then, bacteria were gradient‐diluted using fresh CAMHB to a bacterial density of 5 × 10^5 CFU/mL. Antibacterial experiments were performed in a 96‐well plate with 200 μg/mL final peptide concentration. Four experimental groups were set up, including a blank control (200 μL CAMHB), a negative control (180 μL CAMHB plus 20 μL peptide), a positive control (180 μL bacterial culture plus 20 μL ultrapure water), and an experimental group (180 μL bacterial culture plus 20 μL peptide). Three biological replicates were conducted for each group, and OD600 values were measured after incubation at 37°C for 12 h. Every observed value was removed from the blank control group value. […] The MIC of a peptide against a bacterium was determined as the minimum peptide concentration at which there was no visible bacterial growth.

| Compound | Cytotoxicity CC50 [1] | Hemolysis ratio (%) at 8μg/mL (sheep red blood cells) | Hemolysis ratio (%) at 16μg/mL (sheep red blood cells) | Hemolysis ratio (%) at 32μg/mL (sheep red blood cells) | Hemolysis ratio (%) at 64μg/mL (sheep red blood cells) | Hemolysis ratio (%) at 128μg/mL (sheep red blood cells) | MIC against nearly all strains [2] |
| --- | --- | --- | --- | --- | --- | --- | --- |
| CSCC[C@H](N)C(=O)N[C@@H](CCCCN)C(=O)N1CCC[C@H]1C(=O)N[C@@H](CS)C(=O)N[C@@H](CCCNC(=N)N)C(=O)N[C@@H](CCCCN)C(=O)N[C@@H](C)C(=O)N[C@@H](CC(C)C)C(=O)N[C@@H](Cc1c[nH]c2ccccc12)C(=O)N[C@@H](CO)C(=O)N[C@H](C(=O)N[C@@H](Cc1c[nH]c2ccccc12)C(=O)N[C@@H](CCCCN)C(=O)N[C@@H](CCCNC(=N)N)C(=O)N[C@@H](CCCCN)C(=O)N[C@@H](CS)C(=O)N[C@@H](CCCNC(=N)N)C(=O)N[C@@H](Cc1c[nH]cn1)C(=O)N[C@@H](CCC(=O)O)C(=O)O)C(C)C [Cand-196] (H-MKPCRKALWSVWKRKCRHE-OH) | 18.881 µg/mL | 1.481% | 2.356% | 4.680% | 5.976% | 13.102% | – |
| MKKCRRKVLFGLWRRN [Cand-77] | 45.263 µg/mL | 3.431% | 4.302% | 5.822% | 8.387% | 12.471% | ≤ 32 µg/mL |
| MRCSLKKIISTFFS [Cand-71] | 23.841 µg/mL | 6.779% | 7.213% | 15.000% | – | 19.534% | – |
| MRIVMCRIGGRL [Cand-102] | 5.897 µg/mL | 6.842% | 37.647% | 54.569% | – | 41.034% | – |
| MSRSLRNLLKYVWVKVKGE [Cand-217] | 25.740 µg/mL | 2.490% | 2.604% | 4.447% | 9.600% | – | ≤ 32 µg/mL |
| MVAVMKKLLLKYALK [Cand-82] | 10.864 µg/mL | 2.395% | 3.214% | 3.498% | 2.486% | – | – |
